This is an account of results in patent publication US20080038386A1, “Use of a liquid cooling sensate to provide a pungent, warming or tingling sensate composition” (priority 2006, published 2008).

Each structure is given as a SMILES string.

For assay [1] the following is noted: 30 ppm in sucrose solution; cited from earlier work.
Assay [2] in a line: Sensory panel: pungency enhancement of a hot chile pepper sauce. Format: in vivo. From the text: For this type evaluation, a panel consisting of both professional flavorists and other individuals with sensory testing experience was employed. In each tasting session two samples were presented to the panelists in a randomized order to avoid presentation order effect. Panelists were asked to rate the samples as same or different. If different, panelists were asked to rate the “pungent, hotness (warming) or tingling” intensity and to describe the flavor profile as compared to a control sample without the eutectic cooling mixture.
A commercial hot chile pepper sauce derived from Capsicum frutescens var. tabasco (Tabasco® brand) (whose primary pungent principles are the amides capsaicin and dihydrocapsaicin) was diluted to 5% strength in water (the control). […] The control sample was the 5% strength hot chile pepper sauce. […] The degree of hotness (warmth) and pungency profile enhancement was judged to be 25-35%.

Consider `C/C=C/C=C\CC/C=C/C(=O)NCC(C)C` [spilanthol, 2E,6Z,8E-decatrienoic acid-N-isobutylamide], for which the sensory description result in assay [1] is listed as “tingling & mouth watering”.
Regarding `CCNC(=O)C1CC(C)CCC1C(C)C` (stereo not drawn) [WS-3, N-Ethyl-p-menthane-3-carboxamide], the “accompanying sensory effect noted by panelists” value in assay [2] (28 ppm in 5% strength hot chile pepper sauce, especially in the back of the throat) was “unpleasant irritating-scratchy effect”. Besides, the “sensory balance accompanying the pungency enhancement” value in assay [2] (capsaicin containing products (summary statement)) was “unbalanced scratchy-irritating and distorted sensory impression”.
